BindingDB's records for doi:10.1021/acs.jmedchem.7b00606 (Griffith University, 2017)

Molecular target: Carbonic anhydrase 2 (Homo sapiens, UniProt P00918)
Assay: Binding affinity to human carbonic anhydrase 2 by surface plasmon resonance spectrometry

For O=c1[nH]c(O)c(-c2ccccc2)[nH]1 [5-Phenyl-imidazolidine-2,4-dione], the Kd was > 2000 µM.
